Values of other authors as cited in PMC9302689 (British Journal of Clinical Pharmacology, 2022).

What was measured:
[1] = cited from earlier work
[2] = cited from earlier work; remark: listed apart in the source

CNC1(c2ccccc2Cl)CCCCC1=O (stereo not shown) [Ketamine]
NeuroCart effects [1]: decreased saccadic peak velocity, adaptive tracking and alertness and increased body sway and psychedelic effects

CN(C)CCCC1(c2ccc(F)cc2)OCc2cc(C#N)ccc21 (stereo not shown) [citalopram]
Effect on serum cortisol and prolactin levels [2]: increase levels of these hormones

CN(C)CCC[C@@]1(c2ccc(F)cc2)OCc2cc(C#N)ccc21 [escitalopram]
Effect on serum cortisol and prolactin levels [2]: increase levels of these hormones

Buprenorphine
NeuroCart effects [1]: decreased adaptive tracking and saccadic peak velocity and increased body sway
